Assay results: ChEMBL document CHEMBL4251694 (ACS Med Chem Lett, 2018)

How the values were obtained:
Influenza A virus = experiment: Antiviral activity against Influenza A virus A/WSN/33 H1N1 harboring N31S mutant infected in MDCK cells assessed as reduction in virus-induced cytopathic effect by crystal violet staining based light-microscopic analysis; format: functional, organism-based, A/WSN/1933(H1N1)
[1] = biological target: Matrix protein 2 (Influenza A virus (A/Udorn/307/1972(H3N2)), UniProt P0DOF8, S31N); experiment: Binding affinity to Influenza A virus A/Udorn/72 M2 proton channel S31N mutant expressed in Xenopus laevis oocytes at pH 5.5 by two-electrode voltage clamp assay; format: cell-based, Influenza A virus (A/udorn/1972(H3N2))
[2] = biological target: Matrix protein 2 (Influenza A virus (A/Udorn/307/1972(H3N2)), UniProt P0DOF8, S31N); experiment: Binding affinity to Influenza A virus A/Udorn/72 M2 proton channel S31N mutant by isothermal calorimetric titration; parameters: species or system Influenza A virus (A/udorn/1972(H3N2))

SMILES	EC50 (Influenza A virus) [nM]	Kd [1] [mM]	Kd [2] [µM]
C[C@@H](N)C12CC3CC(CC(C3)C1)C2	40	–	–
C[C@H](N)C12CC3CC(CC(C3)C1)C2	20	–	–
CC(C)(N)C12CC3CC(CC(C3)C1)C2	30	0.444	–
CCC(N)(CC)C12CC3CC(CC(C3)C1)C2	1010	–	–
CCCC(N)(CCC)C12CC3CC(CC(C3)C1)C2	1060	1.8	> 10
NC12CC3CC(CC(C3)C1)C2 [AMANTADINE]	480	–	–
CCOC(=O)C1=C[C@@H](OC(CC)CC)[C@H](NC(C)=O)[C@@H](N)C1 [OSELTAMIVIR]	20	–	–
CC(N)C12CC3CC(CC(C3)C1)C2 (stereo unspecified) [RIMANTADINE]	40	–	–
